These results are taken from patent US7105534B2, “Imidazo[1,2-α]pyridine ether compounds as ion channel modulators” (Cardiome Pharma Corp., priority 2000, dated 2006).

The subject of experiment [1] is anesthetized rats subjected to coronary artery occlusion. Nature of the experiment: Antiarrhythmic efficacy: arrhythmias after coronary artery occlusion in anesthetized rats. The class given is in vivo, rat. Particulars: i.v. infusion. The text has this:
Antiarrhythmic efficacy may be assessed by investigating the effect of a compound on the incidence of cardiac arrhythmias in anesthetized rats subjected to coronary artery occlusion. Rats weighing 200–300 gms are subjected to preparative surgery and assigned to groups in a random block design. In each case, the animal is anesthetized with pentobarbital during surgical preparation. The left carotid artery is cannulated for measurement of mean arterial blood pressure and withdrawal of blood samples. The left jugular vein is also cannulated for injection of drugs. The thoracic cavity is opened and a polyethylene occluder loosely placed around the left anterior descending coronary artery. The thoracic cavity is then closed. An ECG is recorded by insertion of electrodes placed along the anatomical axis of the heart. […] ECG, arrhythmias, blood pressure, heart rate and mortality are monitored for 15 minutes after occlusion. Arrhythmias are recorded as ventricular tachycardia (VT) and ventricular fibrillation (VF) and scored according to Curtis, M. J. and Walker, M. J. A., Cardiovasc. […]
Occlusion is associated with R-wave height and “S-T” segment elevation; and an occluded zone (measured after death by cardiogreen dye perfusion) in the range of 25%–50% of total left-ventricular weight.
Results of the test compounds may be expressed as values of a given infusion rate in micromol/kg/min. […]

For another experiment, the target named is T1, Kv1.5 (Homo sapiens, UniProt P22460).
T1 construct: expressed in transfected cells; host or cells: HEK cells, transient transfection, vector pCDNA3
T1 sequence (P22460 whole entry): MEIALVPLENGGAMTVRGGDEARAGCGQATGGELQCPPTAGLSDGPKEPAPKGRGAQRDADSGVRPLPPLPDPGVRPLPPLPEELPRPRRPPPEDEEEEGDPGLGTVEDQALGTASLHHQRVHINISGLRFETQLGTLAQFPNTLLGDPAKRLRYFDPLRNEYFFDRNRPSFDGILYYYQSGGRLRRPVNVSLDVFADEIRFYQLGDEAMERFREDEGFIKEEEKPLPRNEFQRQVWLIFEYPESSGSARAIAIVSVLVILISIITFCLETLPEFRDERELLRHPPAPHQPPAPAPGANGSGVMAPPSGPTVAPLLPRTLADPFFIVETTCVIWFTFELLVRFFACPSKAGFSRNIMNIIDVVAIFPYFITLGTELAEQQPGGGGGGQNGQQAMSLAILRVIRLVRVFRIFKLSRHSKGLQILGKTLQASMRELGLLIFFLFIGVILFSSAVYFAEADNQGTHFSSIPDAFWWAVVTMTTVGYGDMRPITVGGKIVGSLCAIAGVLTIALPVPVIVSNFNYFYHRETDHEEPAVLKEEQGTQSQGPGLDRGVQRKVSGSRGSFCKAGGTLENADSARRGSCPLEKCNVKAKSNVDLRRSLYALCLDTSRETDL
The experiment in a line: Patch-clamp inhibition of cloned ion channel current in transfected HEK cells: Kv1.5. The class given is cell-based. Particulars: steady-state current, -80 mV to +60 mV. In short, it runs like this:
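Whole-cell patch clamp at 22–23 °C on transiently transfected HEK cells, compound 0.5–100 μM, pulses every 4 s. Na+: peak current, −100 mV holding, −30 mV for 10 ms; Kv1.5 (steady-state) and Kv4.2 (integrated): −80 mV holding, +60 mV for 200 ms. IC50 by Hill fit, 4–6 cells.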
For orientation: Patch clamp records ionic current or voltage across a cell membrane.

Turning to `COc1ccc(CCCOc2cccn3cc(C)nc23)cc1OC` [Compound 3, 8-[3-(3,4-DIMETHOXYPHENYL)PROPOXY]-2-METHYLIMIDAZO[1,2-α]PYRIDINE MONOHYDROCHLORDE], in experiment [1], the “ED50AA (infusion rate reducing arrhythmia score to 50% of vehicle-treated animals)” value stood at 5 µmol/kg/min. For the same compound, on Kv1.5, the IC50 (as a rule, the point on the concentration scale where inhibition reaches its midpoint) was 6 µM.
